Data reported in ChEMBL document CHEMBL5120875, “Discovery of diarylheptanoids that activate α7 nAchR-JAK2-STAT3 signaling in macrophages with anti-inflammatory activity in vitro and in vivo” (Bioorg Med Chem, 2022).
The source made the active and inactive calls. No cut-off for these calls is given here.

Tests used:
[1] = test system: Mus musculus; test: (§1) Antiinflammatory activity in LPS-induced ICR sepsis mouse model assessed as attenuation of LPS-induced lung damage at 5 mg/kg, ip pretreated with compound for 5 days followed by LPS stimulation and measured 2 hrs post last dose by hematoxylin and eosin staining based microscopic analysis; format: functional, organism-based; conditions: time 5.0 day
[2] = test system: Mus musculus; test: as §1, with “inflammatory cell infiltration” for “lung damage”; format: functional, organism-based; conditions: time 5.0 day

**Q.** `C[C@@H]1C[C@H]2[C@@H]3CCC4=CC(=O)C=C[C@]4(C)[C@@]3(F)[C@@H](O)C[C@]2(C)[C@@]1(O)C(=O)CO` was tested. Which Activity [1] did it give?
**A.** The Activity was “Active”.

**Q.** And the Activity [2]?
**A.** Its Activity is “Active”.
